Reference: patent publication US10323228B2, “Differentiation of hepatocyte-like cells from stem cells” (Agency for Science, Technology and Research, priority 2014, dated 2019)
pIC50: −log10 of the molar value. Read-outs that look alike come from different tables or passages of the source.

How the values were obtained:
[1] = test system: primary human hepatocytes (PH, PHHs); assay: Cell viability assay (MTT) of primary human hepatocytes after 24 hours drug treatment; format: cell-based; conditions: Hepatocyte, read-out: IC50 PH
Description: Cryopreserved PHHs were obtained from Life Technologies (Carlsbad, Calif., USA) and BD Biosciences (Franklin Lakes, N.J., USA). The cells were thawed in a 37° C. water bath and resuspended in pre-warmed InVitroGRO HT Thawing Medium (Celsis, In Vitro Technologies, Baltimore, Md., USA). The cells were centrifuged at 800 rpm at 4° C. and the cell pellet was resuspended in InVitroGRO CP Plating Medium (containing 0.02% Torpedo Antibiotic Mix). Cells were counted and 50,000 cells were plated into each well of 96-well plates (Nunc, Naperville, Ill., USA) pre-coated with neutralized 1.5 mg/ml PureCol® Bovine Collagen solution, Type 1 (Advanced Biomatrix, San Diego, Calif., USA). After allowing for cell attachment for 4 hours, the media was changed to William's media E (Sigma-Aldrich, Singapore), supplemented with 1 mg/ml bovine serum albumin (Sigma), 1× insulin-transferrin-selenium and 1×MEM non-essential amino acids (Gibco, Carlsbad, Calif., USA), 100 nM dexamethasone (Sigma), 0.3 mg/ml L-glutamine (Lonza, Basel, Switzerland), 100 U/ml penicillin and 100 μg/ml streptomycin (Cellgro, Manassas, Va.). Culture medium was changed daily. Three different lots of hepatocytes were used for the experiments. All assays were performed after 2 days of culture.
(§1) Cell viability of differentiated hepatocytes was measured 24 hours after treatment with drugs using CellTiter 96® Non-Radioactive Cell Proliferation Assay (MTT) (Promega, Madison, Wis., USA) according to manufacturer's instructions. The following drugs were used for the cell viability assays: Acetaminophen, Diclofenac, Digoxin, Chlorpromazine, Troglitazone and Quinidine (all drugs from Sigma). Stock solutions of drugs were prepared in DMSO and then diluted in media to obtain desired working concentrations. Controls were treated with DMSO alone (in absence of test compounds) and considered as 100% viability value.
(§2) One of the major applications of hepatocytes is toxicity screening in order to aid drug development and discovery. Researchers have tried to predict drug-induced cytotoxicity in vitro using HepG2, HepaRG primary human hepatocyte (PH) as well as hESC/hiPSC-derived hepatocyte like cells. Although primary human hepatocyte (PH) are considered the gold standard for drug metabolism and toxicity in vitro, cells lines such as HepG2 and HepaRG are less expensive than primary human hepatocyte (PH) and reproducible experiments are easier to perform than they are with primary human hepatocyte (PHs). However, 30% of the compounds were incorrectly classified as nontoxic. To overcome these problems, it would be highly advantageous if hESC/hiPSC derived hepatocytes could be used to predict drug-induced toxicity. To examine its applicability to drug screening, small molecule-derived hepatocytes (SM-Hep) were treated with various drugs that cause hepatotoxicity. Cell viability, assessed using MTT assay, was compared to growth factor-derived hepatoctyes (GF-Hep) as well as primary human hepatocyte (PH). The susceptibility of small molecule-derived hepatocytes (SM-Hep) to all the drugs tested was similar to that of the growth factor-derived hepatoctyes (GF-Hep) (FIG. 6).

[2] = test system: SM-Hep (hepatocytes derived from hESCs using small molecules); assay: Cell viability assay (MTT) of small molecule-derived hepatocytes after 24 hours drug treatment; format: cell-based; conditions: Homo sapiens, Hepatocyte, read-out: IC50 SM-Hep
Description: (§3) The differentiation was initiated when hESCs reached a confluence level of approximately 80%. […] Briefly, basal differentiation medium was composed of 60% DMEM-low glucose (Gibco, Carlsbad, Calif., USA), 40% MCDB-201-water (Sigma), 0.25× Linoleic acid—Bovine serum albumin (LA-BSA) (Sigma), 0.25× Insulin-transferrin-selenium (ITS) (Sigma), 100 U/mL Penicillin and 100 μg/mL Streptomycin (Cellgro), 0.1 mM L-Ascorbic Acid (Sigma), 1 μM Dexamethasone (Sigma) and 110 μM 2-mercaptoethanol (Gibco).
as §1, §2

[3] = test system: GF-Hep (hepatocytes derived from hESCs using growth factors); assay: Cell viability assay (MTT) of growth factor-derived hepatocytes after 24 hours drug treatment; format: cell-based; conditions: Homo sapiens, Hepatocyte, read-out: IC50 GF-Hep
Description: as §3, §1, §2

hESCs (H9) = assay: qPCR of pluripotency and definitive endoderm markers in hESCs treated for 6 days; format: cell-based, human; conditions: among small molecule combinations
Description: hESC cell line, H9 (WiCell Research Institute, Madison, Wis.) was cultured and propagated on tissue culture plates coated with matrigel (BD Biosciences, San Jose, Calif., USA) in mTeSRTM 1 media (Stem Cell Technologies, Vancouver, BC, Canada). Cultures were passaged at intervals of 5-7 days by incubation with 1 mg/ml dispase (Stem Cell Technologies) for 5 minutes at 37° C. Colonies were picked under microscopic guidance and replated at 1:3 to 1:6 split ratios. […] (20 ng/ml). […] In human embryonic stem cells (hESCs), manipulations of Nodal and Wnt signaling have been exploited to direct differentiation towards definitive endoderm (DE). […] Therefore, to induce differentiation of HESCs into definitive endoderm using small molecules, the present study analyzed effects of compounds which could substitute for Activin A or/and Wnt signaling. […] Cells were cultured in the presence of diverse combinations of these three compounds for 6 days, and expression of pluripotency marker (OCT4) and definitive endoderm markers (SOX17 and FoxA2) were analyzed using qPCR. […] The expression of pluripotency markers (OCT4, Nanog and SOX2) and definitive endoderm (DE) markers (SOX17 and FOXA2) were analyzed using qPCR. […]

[4] = Table 1 (initial results), cell viability, 24 hours treatment
[5] = Table 2 (updated results), cell viability, 24 hours treatment, PHHs

Row | Compound | pIC50 [1, 4] | pIC50 [1, 5] | pIC50 [2, 4] | pIC50 [3, 4] | FOXA2 expression (hESCs (H9)) | SOX17 expression (hESCs (H9)) | pIC50 [1] | pIC50 ([2]; 24 h) | pIC50 ([3]; 24 h)
1 | Cc1c(C)c2c(c(C)c1O)CCC(C)(COc1ccc(CC3SC(=O)NC3=O)cc1)O2 (stereo not shown) [Troglitazone] | 4.07 | 4.53 | 4.50 | 4.47 | – | – | – | – | –
2 | O=C(O)Cc1ccccc1Nc1c(Cl)cccc1Cl [Diclofenac] | 2.45 | 2.45 | 2.71 | 2.73 | – | – | – | – | –
3 | CC(=O)Nc1ccc(O)cc1 [Acetaminophen] | 1.34 | 1.34 | 1.42 | 1.34 | – | – | – | – | –
4 | O=C(O)CCCCCC(=O)NN=C1CCCC1 [IDE-2] | – | – | – | – | highest FOXA2 expression | no SOX17 expression was detected | – | – | –
5 | C=C[C@H]1C[N@@]2CC[C@H]1C[C@@H]2[C@@H](O)c1ccnc2ccc(OC)cc12 [Quinidine] | 3.70 | 3.25 | 3.14 | 3.27 | – | – | – | – | –
6 | CN(C)CCCN1c2ccccc2Sc2ccc(Cl)cc21 [Chlorpromazine] | 4.14 | 4.14 | 4.17 | 4.21 | – | – | – | – | –
7 | C[C@H]1O[C@@H](O[C@H]2[C@@H](O)C[C@H](O[C@H]3[C@@H](O)C[C@H](O[C@H]4CC[C@@]5(C)[C@H](CC[C@@H]6[C@@H]5C[C@@H](O)[C@]5(C)[C@@H](C7=CC(=O)OC7)CC[C@]65O)C4)O[C@@H]3C)O[C@@H]2C)C[C@H](O)[C@@H]1O [Digoxin] | – | – | – | – | – | – | 6.47 | 6.44 | 6.60
